Each block holds one molecule with its values, some of them ahead of it.
How the values were obtained:
[1] = tested on: bacterial (E. coli) inflammatory lesions (pus capsule); test: Gamma camera imaging of rats with bacterial infection; type: in vivo; design: key to Figure of Merit (FOM), equation (1): FOM=(At-Ab)^2/(At+Ab), from total counts target vs background; conditions: for Figure of Merit (FOM), equation (1): 0.2 mCi ^67 Ga-citrate (n=3); for Figure of Merit (FOM), equation (1) / Pus Capsule to Contralateral Tissue (T/B) Ratio, gamma camera imaging: 1.5 mCi/rat ^123 IUdR (n=4); for Figure of Merit (FOM), equation (1) / Pus Capsule to Contralateral Tissue (T/B) Ratio, gamma camera imaging / Figure of Merit (FOM), equation (2): mean ± SD; for Pus Capsule to Contralateral Tissue (T/B) Ratio, gamma camera imaging: 0.2 mCi/rat ^67 Ga (n=3); for Figure of Merit (FOM), equation (2): n=3 (^67 Ga), n=4 (^123 IUdR)
Method: (§1) A frozen sample of E. coli bacteria (clinical isolate; ATCC 9339) was used to inoculate a 10 ml trypticase soy medium (trypticase soy broth, BBL #11768, 30 g/L water), and the tube was incubated overnight at […] This culture was used to grow single colonies by streaking the sample on agar plates (100 mm petri dishes each containing 15 ml of […] in the same medium). Good colonies develop in 10-11 hours at 37° C. The agar plates containing bacterial colonies were stored upside down at 4° C. A single colony of bacteria from the agar plate was used to inoculate 10 ml trypticase soy medium, and the tube was incubated overnight at 37° C. with vigorous shaking. Two ml of this overnight culture was transferred into 100 ml trypticase soy medium and the sample incubated at 37° C. with vigorous shaking until the culture reached an OD600 of ~0.8 (in about 2 hrs). This 100 ml culture contained ~6.4×10^10 bacterial cells (1 OD600 =8×10^8 cells/ml).
(§2) The culture was centrifuged at 5500 rpm for 5 min at 4° C. in a Sorvall SS-34 rotor, the bacterial pellet resuspended in saline to give ~2.5×10^9 bacteria/ml, and 0.1 ml of resuspended cells injected into the left thigh muscle of each anesthetized rat.
(§3) A further set of rats prepared as described in Examples 1 and 2 received intravenous injections of either ^123 IUdR (at a dose of about 1.5 mCi/rat) or gallium-67 citrate (at a dose of about 0.2 mCi/rat). After 1, 3 and 24 hours, rats from each group were anesthetized and imaged using a gamma camera (the General Electric STARCAM™ 400 fitted with parallel hole medium collimator). Anterior images were obtained 10^6 counts/frame except for the 24 h period for ^123 IUdR where a 15 min scan was carried out. A 20% window was present over the 159 keV photopeaks of ^67 Ga (93 kev, 184 keV, and 298 keV).
(§4) Regions of interest (ROI) were drawn over the inflamed areas (3×4 pixel) and over the contralateral area in each rat. Total counts in these regions were used to calculate Target to Background (T/B) ratios and to calculate Figure of Merit (FOM; statistical significance) values using either of the following equations:
(§5) FOM=(At -Ab)^2 /(At +Ab) (1)
(§6) At =counts in ROI (3×4) over pus capsule; and
(§7) Ab =counts in ROI (3×4) over contralateral muscle.
(§8) Equation (1) is derived from the Report of the National Council on Radiation Protection and Measurements, Nuclear Medicine, "Factors Influencing the Choice and Use of Radionuclides in Diagnosis and Therapy", Report No. 70, p.79 (NRCP, Bethesda, Md., 1982). Equation (2) is derived from Rubin et al., J. Nucl. Med. 30:385-389, 1989. For purposes of reference, the disclosures of each of these publications is incorporated herein.

[2] = tested on: sterile inflammatory lesions (pus capsule; turpentine oil); test: Gamma camera imaging of rats with sterile inflammation; type: in vivo, Male Sprague-Dawley rats; conditions: for Figure of Merit (FOM), equation (1): 0.2 mCi ^67 Ga-citrate; for Figure of Merit (FOM), equation (1) / Pus Capsule to Contralateral Tissue (T/B) Ratio, gamma camera imaging: 1.5 mCi/rat ^123 IUdR; for Figure of Merit (FOM), equation (1) / Pus Capsule to Contralateral Tissue (T/B) Ratio, gamma camera imaging / Figure of Merit (FOM), equation (2): n=4, mean ± SD; for Pus Capsule to Contralateral Tissue (T/B) Ratio, gamma camera imaging: 0.2 mCi/rat ^67 Ga
Method: Male Sprague-Dawley rats weighing between 150-200g were obtained from the Charles River Breeding Laboratories in Burlington, Mass. […] To anaesthetize the animals during testing, ketamine (40 mg/kg) and xylazine (10 mg/kg) were administered intra peritoneally (1.0 ml/kg) prior to surgical procedures. For the imaging studies, each animal received 1.5 ml/kg of a mixture of ketamine (75 mg/kg), xylazine (39 mg/kg) and acepromazine (0.75 mg/kg).
To induce a localized sterile inflammation, 0.1 ml of turpentine oil (Rectified Turpentine Oil for medical use, Gentry Corporation, Fair Lawn, N.J.) was injected into the left thigh muscle of anesthetized rats.
as §3, §4, §5, §6, §7, §8

[3] = tested on: sterile inflammatory lesions (pus capsule; turpentine oil); test: Biodistribution (pus capsule to contralateral tissue ratio) in rats with sterile inflammation
[4] = tested on: bacterial (E. coli) inflammatory lesions (pus capsule); test: Biodistribution (pus capsule to contralateral tissue ratio) in rats with bacterial infection; type: in vivo
Method: as §1, §2
No-carrier added radioiodinated deoxyuridine (^125 IUdR) was synthesized by the method described in the above disclosure. Commercially available gallium-67 citrate of known biodistribution characteristics was obtained, for comparison to ^125 IUdR. 24 hrs after each rat described in Example 2 received an intramuscular injection of E. coli or after each rat described in Example 1 received an intramuscular injection of turpentine oil (to permit comparison of activity in a bacterial inflammation lesions to activity in a sterile inflammation lesions) in the left rear thigh, each rat received either ^125 IUdR (about 5 μCi/rat) or gallium-67 citrate (about 10 μCi/rat) suspended in 0.1 ml saline, by injection into the tail vein.
At one, three and 24 hrs after ^125 IUdR or gallium-67 citrate administration, the animals from each group were anesthetized, blood collected via cardiac puncture, urine aspirated from the urinary bladder, and the rats humanely sacrificed. The biodistribution of each radiopharmaceutical (measured as a function of the % injected dose/gram body weight) was then determined in various normal tissues and organs, as well as the left and right legs, the pus capsule formed within the leg and in contralateral muscle tissues (i.e., background tissues unaffected by inflammation) of equivalent weight.
To determine the distribution of each radiopharmaceutical in various tissues of each rat (i.e., the "biodistribution" of each radiopharmaceutical), samples of background tissues and organs (blood, lung, liver, spleen, kidney, muscle and intestine), of target tissue (the pus capsule formed in the leg) and of contralateral muscle tissue (background tissue adjacent to target tissue) were obtained from each rat and weighed. Radioactivity in each sample was measured in a well-type gamma counter (from LKB, Wallac Oy, Finland). To correct for radioactive decay and permit calculation of activity in each organ or tissue as a fraction of the injected dosage of radiopharmaceutical, aliquots of the injected doses were counted at the same time that radioactivity in each sample was determined. The results were measured as a function of the percentage of injected dose/gram (% ID/g). For further reference regarding measurements of biodistribution of radiopharmaceuticals, particularly in blood, those of ordinary skill in the art may wish to refer to Baker et al., "The Laboratory Rat" (Acad.Press N.Y., 1980).
Ab = %ID/g over contralateral muscle

Structure (SMILES): O=c1[nH]c(=O)n([C@H]2C[C@H](O)[C@@H](CO)O2)cc1[123I] [^123 IUdR]
detection of the lesion in scintigraphic images (in words) ([1]; 1, 3, and 24 h, i.v.): can clearly detect the lesion | radioscintigraphic detection by FOM, comparison of agents (in words) ([1]; 1 h, 3 hrs, and 24 hrs): superior agent | radioscintigraphic detection by imaging T/B ratio, comparison of agents (in words) ([1]; 1 h, 3 hrs, and 24 hrs): superior to gallium-67 | Figure of Merit (FOM), equation (1) ([1]; 1 h, i.v.): 1770 ± 598 | Pus Capsule to Contralateral Tissue (T/B) Ratio, gamma camera imaging ([1]; 1 h, i.v.): 3.72 ± 1.06 | Figure of Merit (FOM), equation (2) ([1]; 1 h, i.v.): 2.72 ± 0.53 | Figure of Merit (FOM), equation (1) ([1]; 3 h, i.v.): 1507 ± 775 | Pus Capsule to Contralateral Tissue (T/B) Ratio, gamma camera imaging ([1]; 3 h, i.v.): 3.53 ± 0.80 | Figure of Merit (FOM), equation (2) ([1]; 3 h, i.v.): 2.53 ± 0.40 | Figure of Merit (FOM), equation (1) ([1]; 24 h, i.v.): 214 + 135 | Pus Capsule to Contralateral Tissue (T/B) Ratio, gamma camera imaging ([1]; 24 h, i.v.): 5.35 ± 2.37 | Figure of Merit (FOM), equation (2) ([1]; 24 h, i.v.): 4.35 ± 1.19 | detection of the lesion in scintigraphic images (in words) ([2]; 1, 3, and 24 h, i.v.): can clearly detect the lesion | Figure of Merit (FOM), equation (1) ([2]; 1 h, i.v.): 14444 ± 559 | Pus Capsule to Contralateral Tissue (T/B) Ratio, gamma camera imaging ([2]; 1 h, i.v.): 4.13 ± 1.06 | Figure of Merit (FOM), equation (2) ([2]; 1 h, i.v.): 3.13 ± 0.53 | Figure of Merit (FOM), equation (1) ([2]; 3 h, i.v.): 750 + 268 | Pus Capsule to Contralateral Tissue (T/B) Ratio, gamma camera imaging ([2]; 3 h, i.v.): 3.33 ± 0.92 | Figure of Merit (FOM), equation (2) ([2]; 3 h, i.v.): 2.33 ± 0.46 | efficacy by imaging T/B ratio, comparison of agents (in words) ([2]; 3 hrs): equal | Figure of Merit (FOM), equation (1) ([2]; 24 h, i.v.): 69 + 52 | Pus Capsule to Contralateral Tissue (T/B) Ratio, gamma camera imaging ([2]; 24 h, i.v.): 3.07 ± 0.930 | Figure of Merit (FOM), equation (2) ([2]; 24 h, i.v.): 2.07 ± 1.46 | accumulation in target tissues, rate vs gallium-67 citrate (in words) ([2]; FIGS. 4 and 8 vs FIGS. 3 and 7): more quickly than did gallium-67 citrate | radioscintigraphic detection by FOM, comparison of agents (in words) ([2]; early (i.e., 1 h)): superior agent | radioscintigraphic detection by imaging T/B ratio, comparison of agents (in words) ([2]; early (i.e., 1 h)): superior to gallium-67

time of accumulation in target (inflamed) tissues ([4]; rat, in vivo): ≤ 1 h
Structure (SMILES): O=c1[nH]c(=O)n([C@H]2C[C@H](O)[C@@H](CO)O2)cc1[125I] [^125 IUdR]
concentration within lesion (pus capsule) vs contralateral tissues (in words) ([3]; sterile inflammation (turpentine oil)): to a greater extent than in the contralateral tissues | radioscintigraphic detection by biodistribution T/B ratios, compared with ^67 Ga (in words) ([3]; sterile inflammation, 3 h and 24 h): much better than ^67 Ga | radioscintigraphic detection by biodistribution T/B ratios, compared with ^67 Ga (in words) ([4]; bacterial infection, 1 h, 3 h, and 24 h): better | concentration within lesion (pus capsule) vs contralateral tissues (in words) ([4]; rat, in vivo): to a greater extent than in the contralateral tissues

Source: patent US5811073A, “Method for radioisotopic detection and localization of inflammation in a host” (President and Fellows of Harvard College, priority 1995, dated 1998)
